Entries after “also recorded” stand apart in the source; their conditions may differ. Read-outs that look alike come from different tables or passages of the source.
What was measured:
Assay type in all cases: cell-based
h293 cells = assay: ATP levels by CellTiterGlo in h293 cells (inhibition assays)
Description: Drugs. All drugs were obtained from Sigma except diphenhydramine (purchased commercially as 25 mg allergy tablets) and famotidine (purchased commercially as 10 mg acid controller tablets). All compounds were dissolved in ultrapure water except quinine, which was re-suspended in ethanol. Rotenone was prepared as a concentrated solution in 100% DMSO, then diluted to a working stock (125 μM) in water (final concentration 2.5 μM). 2-DG was used at a final concentration of 20 mM. Diphenhydramine and famotidine were crushed by mortar and pestle, re-suspended in H2O and rotated at room temperature for 1 h. Insoluble material (e.g., cellulose) was removed by centrifugation. […] Cigar smoke was generated from commercially available Backwoods brand containing nicotine.
Cell culture. The following immortalized cells were obtained from the American Tissue Culture Collection: H293 kidney epithelial cells, HDFs (human diploid fibroblasts immortalized by telomerase expression), and U549 lung carcinoma cells. Cells were maintained in DMEM (Fisher Scientific) supplemented with 10% fetal bovine serum (FBS; Atlas Biologicals, Fort Collins, Colo.). DMEM media contained high glucose (25 mM) and the standard amino acids as carbon sources. Cultures were maintained in a 37° C. water jacketed incubator with 5% CO2. When needed cells were removed from the plate using trypsin. It is important to note that FBS and many commercial preparations of trypsin contain glucose. Unless indicated otherwise, after removal, cells were pelleted by centrifugation (2K 4 min room temperature), aspirated, and re-suspended in the desired media. Other media used in this study were DMEM no glu (Fisher Scientific), which is identical to DMEM except it lacks glucose. L-15 media (Fisher Scientific) contains amino acids but replaces glucose with 5 mM galactose. It also lacks sodium bicarbonate (NaHCO3), which was added to the same concentration as in DMEM (44 mM) in all experiments except FIGS. 4A and 4B. Its presence is essential to buffer the media and prevent its acidification in the CO2 incubator. A DMEM type media lacking sodium bicarbonate was also generated using individual components obtained from Fisher Scientific and Sigma. This media was used for FIG. 4D, where its pH was varied by the addition of 500 mM Hepes pH 7-10 (25 mM final concentration).
Inhibition assays. In general, short term immediate effects of the indicated drugs on ATP levels were analyzed by removing growing cells from a p100 mm plate using trypsin, washing with PBS, and re-suspending in the indicated media. After counting using a hemocytometer, 25-50k cells in […] media were distributed in a 96 well white flat bottom, non-treated polystyrene assay plate. In some cases, media was supplemented by the addition of glucose (20 mM final). The plate was typically incubated for 30 min at 37° C. in a CO2 incubator to allow metabolic pathways to adapt to the media. Drugs when then added in the order and at the concentration indicated for each figure, followed by shaking (700 RPM 10 sec), and returned to the incubator. Incubation times were generally between 1 and 2 h so that direct and immediate effects on ATP production could be evaluated. In most cases samples were run in duplicate or triplicate and the standard deviation determined. FIG. 1B is a more traditional drug analysis, in that cells were seeded in a tissue culture treated 96-well plate, allowed to attach overnight, then treated with 10 μL CellTiterBlue resazurin reagent (Promega) to determine effects on viability. Plates were shaken and incubated in the dark for 1-4 h, followed by excitation at 560 nm and determination of fluorescence emitted at 590 nm using a Tecan Safire plate reader. […] Luciferase activity alone (FIG. 1C) was measured by adding 10 CellTiterGlo reagent to 100 μL DMEM media in the absence of cells. […] The luminescence was determined immediately and at later times as described above.

[1] = test system: Human Diploid Fibroblasts (HDFs); assay: ATP levels by CellTiterGlo in Human Diploid Fibroblasts; settings: HDFs in DMEM, in the presence of 2-DG
Description: Cell culture. […] Cells were maintained in DMEM (Fisher Scientific) supplemented with 10% fetal bovine serum (FBS; Atlas Biologicals, Fort Collins, Colo.). DMEM media contained high glucose (25 mM) and the standard amino acids as carbon sources. Cultures were maintained in a 37° C. water jacketed incubator with 5% CO2. When needed cells were removed from the plate using trypsin. […] Unless indicated otherwise, after removal, cells were pelleted by centrifugation (2K 4 min room temperature), aspirated, and re-suspended in the desired media.
Inhibition assays. In general, short term immediate effects of the indicated drugs on ATP levels were analyzed by removing growing cells from a p100 mm plate using trypsin, washing with PBS, and re-suspending in the indicated media. After counting using a hemocytometer, 25-50k cells in 100 mL media were distributed in a 96 well white flat bottom, non-treated polystyrene assay plate. In some cases, media was supplemented by the addition of glucose (20 mM final). […] Incubation times were generally between 1 and 2 h so that direct and immediate effects on ATP production could be evaluated. In most cases samples were run in duplicate or triplicate and the standard deviation determined. […] The luminescence was determined immediately and at later times as described above.

Red blood cells = assay: ATP levels by CellTiterGlo in red blood cells; settings: RBCs in DMEM containing 5 mM glucose
[2] = h293 cells in DMEM (glucose and amino acids), drug alone, short exposure (2 h), no 2-DG or rotenone
[3] = h293 cells in DMEM, in the presence of 2-DG (forced TCA/ETC), drug 2 h
[4] = h293 cells in DMEM no glucose (amino acids only), metabolic inhibitors for 1 h
[5] = h293 cells in DMEM with glucose, metabolic inhibitors for 1 h (2-DG 20 mM, rotenone 2.5 μM)
[6] = h293 cells in L-15 media (galactose instead of glucose), metabolic inhibitors
[7] = h293 cells in L-15 media lacking NaHCO3 (acidified), 37° C. CO2 incubator
[8] = h293 cells in DMEM containing amino acids but lacking glucose, drug alone
[9] = h293 cells in DMEM, in the presence of rotenone (forced glycolysis), drug 2 h
[10] = h293 cells in L-15 media (galactose, plus NaHCO3), no glucose, drug titration
[11] = h293 cells in L-15 media plus glucose, drug titration

Compound: NC(N)=Nc1nc(CSCCC(N)=NS(N)(=O)=O)cs1 [famotidine]
- effect on ATP levels (h293 cells; [2]): no effect on ATP production
- effect on ATP levels (h293 cells; [3]): no effect on ATP production

Compound: C=C[C@H]1C[N@@]2CC[C@H]1C[C@H]2[C@H](O)c1ccnc2ccc(OC)cc12 [Quinine, quinine]
- effect on ATP levels (h293 cells; [3]): much more dramatic in the presence of 2-DG

Compound: CN1CCCC1c1cccnc1 (stereo not shown) [nicotine]
- effect on ATP levels (h293 cells): specificity for inhibiting mitochondrial ATP production

Compound: C=C(C)[C@H]1Cc2c(ccc3c2O[C@@H]2COc4cc(OC)c(OC)cc4[C@@H]2C3=O)O1 [rotenone]
- effect on ATP production (h293 cells; [4]): complete inhibition
- effect on ATP levels (h293 cells; [5]): no effect
- effect on ATP production (h293 cells; [6]): completely inhibited
- effect on ATP production (h293 cells; [7]): sensitive

Compound: O=CC[C@@H](O)[C@H](O)[C@H](O)CO [2-DG, 2-deoxy-D-glucose]
- effect on ATP production (h293 cells; [4]): significant inhibition
- effect on ATP levels (h293 cells; [5]): minimal effect on ATP levels
- effect on ATP production (h293 cells; [6]): partially inhibited
- effect on ATP production (h293 cells; [7]): sensitive

Compound: CCN(CC)CCCC(C)Nc1ccnc2cc(Cl)ccc12 (stereo not shown) [CQ, chloroquine]
- effect on ATP levels (h293 cells; [2]): no apparent effect on ATP levels
- effect on ATP production (h293 cells; [8]): inhibited ATP production
- effect on ATP levels (h293 cells; h293 cells in DMEM no glucose with glucose added back): minimal effect on ATP levels
- effect on ATP levels (h293 cells; [3]): markedly reduced; also recorded: synergistic effect that dramatically reduced ATP production
- effect on ATP levels (h293 cells; [9]): no effect on ATP levels
- effect on ATP production (h293 cells; [10]): inhibited ATP production; also recorded: very sensitive
- effect on ATP production (h293 cells; [7]): no CQ inhibition
- effect on ATP production (h293 cells; [11]): prevented inhibition
- time course of inhibition of ATP production (h293 cells; h293 cells in L-15 media plus sodium bicarbonate, 250 μM CQ): increased dramatically over time
- ATP production after order of addition (h293 cells; h293 cells in media containing glucose treated with CQ, then 2-DG added): re-established inhibition of ATP production; also recorded: CQ inhibition is revealed in the presence of 2-DG
- ATP levels after order of addition (h293 cells; h293 cells pre-incubated with CQ 2 h in media lacking glucose, then glucose added for 1 h): re-established ATP levels; also recorded: glucose overcomes CQ inhibition
- pH dependency of inhibition of ATP production (h293 cells; h293 cells, 1 h in DMEM type media lacking NaHCO3 adjusted to pH 7 to 10 with 25 mM Hepes, then L-15): dramatic increase in CQ inhibition with increasing pH; also recorded: Increasing media pH increases ability of CQ to inhibit ATP production
- effect on ATP levels (CellTiterGlo) (h293 cells; h293 cells, overnight titration, same cells as CellTiterBlue): clear CQ dependent decrease
- effect on ATP levels [1]: confirmed
- effect on ATP production via glycolysis (Red blood cells): no effect on ATP production

Compound: CCN(CCO)CCCC(C)Nc1ccnc2cc(Cl)ccc12 (stereo not shown) [HCQ, hydroxychloroquine]
- effect on ATP production (h293 cells; [8]): inhibited ATP production
- effect on ATP levels (h293 cells; [3]): synergistic effect that dramatically reduced ATP production
- effect on ATP levels (h293 cells; [9]): no effect on ATP levels
- effect on ATP production (h293 cells; [10]): inhibited ATP production; also recorded: very sensitive
- effect on ATP production (h293 cells; [11]): prevented inhibition

Compound: CN(C)CCOC(c1ccccc1)c1ccccc1 [diphenhydramine]
- effect on ATP levels (h293 cells; [2]): minimal effect on ATP production
- effect on ATP levels (h293 cells; [3]): strongly inhibited; also recorded: specifically inhibited mitochondrial ATP production
